From USRE39591E1, “6-O-substituted ketolides having antibacterial activity” (Abbott Laboratories, priority 1996, dated 2007)
In brackets after ≈: the same amount, converted by molar mass.

Test system: up to 32 different microorganisms
Assay: in vitro antibacterial activity (MIC), agar dilution on Brain Heart Infusion (BHI) agar with Steers replicator
Assay type: cell-based
Settings: unit assumed
Description: Representative compounds of the present invention were assayed in vitro for antibacterial activity as follows: Twelve petri dishes containing successive aqueous dilutions of the test compound mixed with 10 mL of sterilized Brain Heart Infusion (BHI) agar (Difco 0148-01-5) were prepared. Each plate was inoculated with 1:100 (or 1:10 for slow-growing strains, such as Micrococcus and Streptococcus) dilutions of up to 32 different microorganisms, using a Steers replicator block. The inoculated plates were incubated at 35°-37° C. for 20 to 24 hours. In addition, a control plate, using BHI agar containing no test compound, was prepared and incubated at the beginning and end of each test.
An additional plate containing a compound having known susceptibility patterns for the organisms being tested and belonging to the same antibiotic class as the test compound was also prepared and incubated as a further control, as well as to provide test-to-test comparability. Erythromycin A was used for this purpose.
After incubation, each plate was visually inspected. The minimum inhibitory concentration (MIC) was defined as the lowest concentration of drug yielding no growth, a slight haze, or sparsely isolated colonies on the inoculum spot as compared to the growth control.

[1] = Candida albicans CCH 442 (code TT)
[2] = Enterococcus faecism ATCC 8043 (code II)
[3] = Escherichia coli DC-2 (code SS)
[4] = Escherichia coli JUHL (code QQ)
[5] = Haemophilis influenzae DILL AMP R (code WW)
[6] = Micrococcus luteus ATCC 4698 (code PP)
[7] = Nocardia Asteroides ATCC9970 (code VV)
[8] = Staphylococcus aureus 1775 (code GG)
[9] = Staphylococcus aureus A5177 (code BB)
[10] = Staphylococcus aureus A-5278 (code CC)
[11] = Staphylococcus aureus ATCC 6538P (code AA)
[12] = Staphylococcus aureus CMX 553 (code FF)
[13] = Staphylococcus aureus CMX 642A (code DD)
[14] = Staphylococcus aureus NCTC10649M (code EE)
[15] = Staphylococcus epidermidis 3519 (code HH)
[16] = Streptococcus Pneumonia 5649 (code ZZA)
[17] = Streptococcus Pneumonia 5979 (code ZZ)
[18] = Streptococcus Pneumonia ATCC6303 (code XX)
[19] = Streptococcus agalactiae CMX 508 (code KK)
[20] = Streptococcus pyogenes 930 (code MM)
[21] = Streptococcus pyogenes EES61 (code LL)
[22] = Streptococcus pyogenes PIU 2548 (code NN)

SMILES: CC[C@H]1OC(=O)[C@H](C)C(=O)[C@H](C)[C@@H](O[C@@H]2O[C@H](C)C[C@H](N(C)C)[C@H]2O)[C@@](C)(OCC=Cc2cnc3ccc(C(=O)O)cc3c2)C[C@@H](C)C(=O)[C@H](C)[C@H]2NC(=O)O[C@@]21C [Example 214]
- MIC (organism code AA): 6.2 µg/mL (≈ 7.65 µM)
- MIC (organism code BB): 251 µg/mL (≈ 310 µM)
- MIC (organism code CC): > 100 µg/mL
- MIC (organism code DD): 12.5 µg/mL (≈ 15.4 µM)
- MIC (organism code EE): 12.5 µg/mL (≈ 15.4 µM)
- MIC (organism code FF): 12.5 µg/mL (≈ 15.4 µM)
- MIC (organism code GG): > 100 µg/mL
- MIC (organism code HH): 25 µg/mL (≈ 30.9 µM)
- MIC (organism code II): 25 µg/mL (≈ 30.9 µM)
- MIC (organism code JJ): 6.2 µg/mL (≈ 7.65 µM)
- MIC (organism code KK): 3.1 µg/mL (≈ 3.83 µM)
- MIC (organism code LL): 1.56 µg/mL (≈ 1.93 µM)
- MIC (organism code MM): 12.5 µg/mL (≈ 15.4 µM)
- MIC (organism code NN): 25 µg/mL (≈ 30.9 µM)
- MIC (organism code OO): 12.5 µg/mL (≈ 15.4 µM)
- MIC (organism code PP): 12.5 µg/mL (≈ 15.4 µM)
- MIC (organism code QQ): > 100 µg/mL
- MIC (organism code RR): 3.1 µg/mL (≈ 3.83 µM)
- MIC (organism code SS): > 100 µg/mL
- MIC (organism code TT): > 100 µg/mL
- MIC (organism code UU): 100 µg/mL (≈ 123 µM)
- MIC (organism code VV): 50 µg/mL (≈ 61.7 µM)
- MIC (organism code WW): 64 µg/mL (≈ 79 µM)
- MIC (organism code XX): 1 µg/mL (≈ 1.23 µM)
- MIC (organism code YY): 1 µg/mL (≈ 1.23 µM)
- MIC (organism code ZZ): > 128 µg/mL
- MIC (organism code ZZA): 32 µg/mL (≈ 39.5 µM)

SMILES: CC[C@H]1OC(=O)[C@H](C)C(=O)[C@H](C)[C@@H](O[C@@H]2O[C@H](C)C[C@H](N(C)C)[C@H]2O)[C@@](C)(OCC=Cc2cnc3ccccc3c2)C[C@@H](C)C(=O)[C@H](C)[C@@H](O)[C@]1(C)O [Example 18, Compound of Formula (VIII): X is O, R is —CH2CH═CH-(3-quinolyl)]
- MIC [1]: > 100 µg/mL
- MIC [2]: 0.2 µg/mL
- MIC [3]: > 100 µg/mL
- MIC [4]: > 100 µg/mL
- MIC (Escherichia coli SS (code RR)): 0.39 µg/mL
- MIC [5]: 16 µg/mL
- MIC [6]: 0.2 µg/mL
- MIC [7]: 0.1 µg/mL
- MIC [8]: > 100 µg/mL
- MIC [9]: 0.2 µg/mL
- MIC [10]: > 100 µg/mL
- MIC [11]: 0.2 µg/mL
- MIC [12]: 0.2 µg/mL
- MIC [13]: 0.2 µg/mL
- MIC [14]: 0.2 µg/mL
- MIC [15]: 0.2 µg/mL
- MIC [16]: 0.25 µg/mL
- MIC [17]: 128 µg/mL
- MIC [18]: 0.03 µg/mL
- MIC [19]: 0.2 µg/mL
- MIC [20]: 100 µg/mL
- MIC [21]: 0.2 µg/mL
- MIC [22]: 0.1 µg/mL

SMILES: CC[C@H]1OC(=O)[C@H](C)C(=O)[C@H](C)[C@@H](O[C@@H]2O[C@H](C)C[C@H](N(C)C)[C@H]2O)[C@@](C)(OCC=Cc2ccc(Cl)cc2)C[C@@H](C)C(=O)[C@H](C)[C@@H](O)[C@]1(C)O [Example 17, Compound of Formula (VIII): X is O, R is —CH2CH═CH-(4-chlorophenyl)]
- MIC [1]: 50 µg/mL
- MIC [2]: 1.56 µg/mL
- MIC [3]: > 100 µg/mL
- MIC [4]: > 100 µg/mL
- MIC (Escherichia coli SS (code RR)): 12.5 µg/mL
- MIC [5]: 64 µg/mL
- MIC [6]: 0.78 µg/mL
- MIC (Micrococcus luteus ATCC 9341 (code OO)): 0.39 µg/mL
- MIC (Mycobacterium smegmatis ATCC 114 (code UU)): 3.1 µg/mL
- MIC [7]: 3.1 µg/mL
- MIC [8]: 50 µg/mL
- MIC [9]: 1.56 µg/mL
- MIC [10]: 50 µg/mL
- MIC [11]: 1.56 µg/mL
- MIC [12]: 1.56 µg/mL
- MIC [13]: 1.56 µg/mL
- MIC [14]: 1.56 µg/mL
- MIC [15]: 1.56 µg/mL
- MIC [16]: 2 µg/mL
- MIC [17]: 32 µg/mL
- MIC [18]: 1 µg/mL
- MIC (Streptococcus Pneumonia GYR 1171 (code YY)): 0.5 µg/mL
- MIC [19]: 0.78 µg/mL
- MIC (Streptococcus bovis A-5169 (code JJ)): 0.39 µg/mL
- MIC [20]: 25 µg/mL
- MIC [21]: 0.78 µg/mL
- MIC [22]: 0.78 µg/mL
